From patent publication US12304897B2, “15-PGDH inhibitors” (KYORIN PHARMACEUTICAL CO., LTD., priority 2019, dated 2025) come the findings set out here.

Some results are limits rather than exact numbers.

The experiment concerns the target recombinant human 15-PGDH (Homo sapiens (Human), UniProt P15428). The experiment can be described thus: 15-PGDH enzyme inhibition test. The experiment is classed as biochemical. The note with it: 4 nM recombinant human 15-PGDH, 30 μM PGE2, 1 mM NAD+, fluorescence 340/440 nm after 60 min. The method, then: 15-PGDH Enzyme Inhibition Test
Test compounds and 4 nM recombinant human 15-PGDH (R&D systems) in 50 mM Tris-HCl (pH 8.0) containing 0.01% TWEEN 20 (Sigma) and 0.01% bovine gamma globulin (Sigma) were put into 384 Flat Bottom Black plates (Corning, 3820) and allowed to stand for 12 minutes at room temperature. Then, 30 μM PGE2 (Cayman chemical) and 1 mM NAD^+ (Sigma) were added to start reaction. Sixty minutes after the start of reaction, signals were measured at an excitation wavelength of 340 nm and a fluorescence emission wavelength of 440 nm using Synergy 2 (BioTeck). The intensity of the fluorescent signal obtained when an assay buffer was added in place of the test compounds and NAD^+ was defined as 100% and that obtained with the addition of NAD^+ was defined as 0%.

Chain of recombinant human 15-PGDH (P15428 whole entry): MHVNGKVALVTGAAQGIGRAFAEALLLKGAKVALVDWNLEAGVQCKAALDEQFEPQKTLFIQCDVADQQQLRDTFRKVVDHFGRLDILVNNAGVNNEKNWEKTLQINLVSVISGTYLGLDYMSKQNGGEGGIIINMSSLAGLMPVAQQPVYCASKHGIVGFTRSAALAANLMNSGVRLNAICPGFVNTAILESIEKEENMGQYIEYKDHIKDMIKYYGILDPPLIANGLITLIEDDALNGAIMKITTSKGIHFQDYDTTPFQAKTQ

As usually defined, the IC50 is the point on the concentration scale where inhibition reaches its midpoint. For the molecule `O=C(c1ccc2c(-c3ccc4c(c3)CN(CC3(C(F)(F)F)CC3)C4=O)cccc2c1)N1CCC(F)(F)CC1` [compound 113], the IC50 fell in the range of 3 to 10 nM.
As to `Cc1nc2c(o1)CCN(c1cccc3cc(C(=O)N4CCCCC4)ccc13)C2` [compound 51], the IC50 lay in the range of 3 to 10 nM.
For the molecule `C[C@H]1CCCN(C(=O)c2ccc3c(-c4cc5cc[nH]c(=O)c5cn4)cccc3c2)C1` [compound 47], the IC50 is under 3 nM.
Take `CC1CCN(C(=O)c2ccc3c(-c4cnc5c(c4)CN(C)C5=O)cccc3c2)CC1` [compound 125]: the IC50 was under 3 nM.
For `O=C(c1ccc2c(-c3ccn4c(=O)[nH]nc4c3)cccc2c1)N1CCC(F)(F)CC1` [compound 26], the IC50 was under 3 nM.
For the molecule `Cn1ccc2cc(-c3c(F)ccc4cc(C(=O)N5CCC(F)(F)CC5)ccc34)ccc2c1=O` [compound 158], the IC50 was under 3 nM.
The result for `COCn1ncc2cc(-c3cccc4cc(C(=O)N5CCC(F)(F)CC5)ccc34)ccc2c1=O` [compound 45] reads under 3 nM; that for `O=C(c1ccc2c(-c3cc4cc[nH]c(=O)c4cn3)c(F)ccc2c1)N1CCC(F)(F)CC1` [compound 86], under 3 nM; that for `Cn1c(=O)[nH]c(=O)c2ccc(-c3cccc4cc(C(=O)N5CCC(F)(F)CC5)cnc34)cc21` [compound 159], under 3 nM.
For the molecule `O=C(c1ccc2c(-c3ccc4c(=O)[nH]ncc4c3)cccc2c1)N1CCCC1` [compound 80], the IC50 was under 3 nM.
As for `O=C(c1ccc2c(-c3cnc4c(=O)[nH]ccc4c3)cccc2c1)N1CCC(F)(F)CC1` [compound 67], the IC50 is under 3 nM.
Next, `CN1Cc2cc(-c3cccc4cc(C(=O)N5CC6(CCC6)C5)ccc34)cnc2C1=O` [compound 150]: under 3 nM; `CC1CN(C(=O)c2ccc3c(-c4ccc5c(=O)[nH]ncc5c4)cccc3c2)CCC1(F)F` (stereo not shown) [compound 119]: under 3 nM.
Turning to `O=C(c1ccc2c(-c3ccc4c(=O)[nH]ncc4c3)cccc2c1)N1C[C@H]2CCC[C@H]2C1` [compound 122], the IC50 was under 3 nM.
Consider `Cn1nc2n(c1=O)CCN(c1ncc(F)c3cc(C(=O)N4CCC(F)(F)CC4)ccc13)C2` [compound 20], for which the IC50 fell in the range of 3 to 10 nM.
Take `CN1Cc2cc(-c3ccc4ccc(C(=O)N5CCC(F)(F)CC5)cc4c3)ccc2C1=O` [compound 138]: the IC50 is under 3 nM.
Next, `NCCn1ncc2cc(-c3cccc4cc(C(=O)N5CCC(F)(F)CC5)ccc34)ccc2c1=O` [compound 162]: under 3 nM.
With `O=C(c1ccc2c(-c3ccc4c(c3)CN(CC3CC3)C4=O)cccc2c1)N1CCC(F)(F)CC1` [compound 55], the IC50 is under 3 nM.
The result for `O=C(c1cnc2c(-c3cnc4c(=O)[nH]ncc4c3)cccc2c1)N1CCC(F)(F)CC1` [compound 140] reads under 3 nM; that for `O=C(O)c1c(F)cc(-c2cccc3cc(C(=O)N4CCC(F)(F)CC4)ccc23)cc1F` [compound 126], under 3 nM; that for `CN1Cc2cc(-c3cccc4nc(C(=O)N5CCCCC5)ccc34)ccc2C1=O` [compound 70], at least 10 nM.
As for `CN1Cc2cc(-c3cccc4cc(C(=O)N5CCCCC5)cnc34)ccc2C1=O` [compound 29], the IC50 is under 3 nM.
Consider `C[C@H]1CCCN(C(=O)c2ccc3c(-c4ccc5c(=O)[nH]ncc5c4)cccc3c2)C1` [compound 81], for which the IC50 was under 3 nM.
Take `CN1CCC2(CCN(c3cccc4cc(C(=O)N5CCCCC5)ccc34)CC2)C1=O` [compound 79]: the IC50 is at least 10 nM.
Next, `COC(=O)CN1Cc2cc(-c3cccc4cc(C(=O)N5CCC(F)(F)CC5)ccc34)ccc2C1=O` [compound 44]: under 3 nM.
Consider `CN(C)C(=O)c1ccc2c(-c3ccn4c(=O)n(C)nc4c3)cccc2c1` [compound 166], for which the IC50 is 3 to 10 nM.
For the molecule `O=C(c1ccc2c(-c3ccc4c(ccc[n+]4[O-])c3)cccc2c1)N1CCC(F)(F)CC1` [compound 71], the IC50 is under 3 nM.
As for `CN1Cc2cc(-c3cccc4cc(C(=O)N5C[C@H]6CCC[C@H]6C5)ccc34)cnc2C1=O` [compound 153], the IC50 is under 3 nM.
The result for `CN1Cc2cc(-c3cccc4cc(C(=O)N5CCCC(F)(F)C5)ccc34)ccc2C1=O` [compound 54] reads under 3 nM; that for `CN1C(=O)c2ccc(-c3cccc4cc(C(=O)N5CCC(F)(F)CC5)ccc34)cc2C1(C)C` [compound 27], under 3 nM.
As for `CN1Cc2cc(-c3ccnc4cc(C(=O)N5CCCCC5)ccc34)ccc2C1=O` [compound 98], the IC50 is under 3 nM.
For the molecule `O=C(c1ccc2c(-c3ccc4ncccc4c3)cccc2c1)N1CCC(F)(F)CC1` [compound 76], the IC50 was under 3 nM.
Next, `CCN(CC)C(=O)c1ccc2c(-c3cnc4c(c3)CN(C)C4=O)cccc2c1` [compound 154]: under 3 nM; `Cn1nc2n(c1=O)CCN(c1cccc3cc(C(=O)N4CCC(F)(F)CC4)ccc13)C2` [compound 75]: under 3 nM; `Cc1n[nH]c(=O)c2ccc(-c3cccc4cc(C(=O)N5CCC(F)(F)CC5)ccc34)cc12` [compound 83]: under 3 nM.
Consider `O=C(c1cnc2c(-c3cnc4c(=O)[nH]ccc4c3)cccc2c1)N1CCC(F)(F)CC1` [compound 132], for which the IC50 is under 3 nM.
Take `Cc1ccc2cc(C(=O)N3CCC(F)(F)CC3)ccc2c1-c1cnc2c(c1)CN(C)C2=O` [compound 16]: the IC50 fell in the range of 3 to 10 nM.
Next, `O=C(c1ccc2c(-c3ccc4c(=O)[nH]ncc4c3)cccc2c1)N1CC2(CCC2)C1` [compound 121]: under 3 nM; `Cn1cnc2cc(-c3cccc4cc(C(=O)N5CCC(F)(F)CC5)ccc34)ccc2c1=O` [compound 38]: under 3 nM; `Cn1nc2n(c1=O)CCN(c1cccc3cc(C(=O)N4CCCC5(CC5)C4)ccc13)C2` [compound 92]: under 3 nM.
The result for `CC1c2cc(-c3cccc4cc(C(=O)N5CCC(F)(F)CC5)ccc34)ccc2C(=O)N1C` (stereo not shown) [compound 10] reads under 3 nM; that for `O=C(c1ccc2c(N3CCc4ncccc4C3)cccc2c1)N1CCC[C@H](C(F)(F)F)C1` [compound 4], under 3 nM; that for `CN1Cc2cc(-c3cncc4cc(C(=O)N5CCC(F)(F)CC5)ccc34)ccc2C1=O` [compound 120], under 3 nM.
For `O=C(c1ccc2c(N3CCc4ncccc4C3)cccc2c1)N1CCCCC1` [compound 50], the IC50 was under 3 nM.
With `O=C(c1ccc2ccc(-c3ccc4c(=O)[nH]ccc4c3)cc2c1)N1CCC(F)(F)CC1` [compound 139], the IC50 was under 3 nM.
On to `NC(=O)c1ccc(-c2cccc3cc(C(=O)N4CCC(F)(F)CC4)ccc23)cc1F` [compound 41], for which the IC50 was under 3 nM.
Take `Cn1ccc2cc(-c3cccc4cc(C(=O)N5CCC(F)(F)CC5)cnc34)ccc2c1=O` [compound 143]: the IC50 is under 3 nM.
For the molecule `O=C(c1ccc2c(-c3ccn4c(=O)ccnc4c3)cccc2c1)N1CCC(F)(F)CC1` [compound 18], the IC50 is under 3 nM.
For the molecule `Cn1ccc2cc(-c3cccc4cc(C(=O)N5CCC(F)(F)CC5)ccc34)cnc2c1=O` [compound 15], the IC50 is under 3 nM.
The result for `O=C(c1ccc2c(N3CCc4ncccc4C3)cccc2c1)N1CCCC2(CC2)C1` [compound 105] reads under 3 nM; that for `O=C(c1ccc2cc(-c3ccc4c(=O)[nH]ccc4c3)ccc2c1)N1CCC(F)(F)CC1` [compound 89], at least 10 nM.
Take `O=C(c1ccc2c(-c3cnc4c(=O)[nH]ncc4c3)c(F)ccc2c1)N1CCC(F)(F)CC1` [compound 102]: the IC50 lay within 3 to 10 nM.
For `COCn1nc2cc(-c3cccc4cc(C(=O)N5CCC(F)(F)CC5)ccc34)ccn2c1=O` [compound 129], the IC50 was under 3 nM.
In the case of `Cn1ccc2cc(-c3cccc4cc(C(=O)N5CCC(F)(F)CC5)cnc34)ncc2c1=O` [compound 144], the IC50 was at least 10 nM.
Next, `O=C(c1cnc2c(-c3ccc4c(=O)[nH]oc4c3)cccc2c1)N1CCC(F)(F)CC1` [compound 141]: under 3 nM.
In the case of `O=C(O)c1ncc(-c2cccc3cc(C(=O)N4CCC(F)(F)CC4)ccc23)cc1F` [compound 130], the IC50 was under 3 nM.
Turning to `O=C(c1ccc2c(-c3ccc4c[nH]c(=O)cc4c3)cccc2c1)N1CCC(F)(F)CC1` [compound 114], the IC50 was 3 to 10 nM.
For `C[C@H]1CCCN(C(=O)c2ccc3c(-c4cnc5c(=O)[nH]ccc5c4)cccc3c2)C1` [compound 46], the IC50 is under 3 nM.
For the molecule `O=C(O)c1ncc(-c2cccc3cc(C(=O)N4CCC(F)(F)CC4)ccc23)cn1` [compound 127], the IC50 is under 3 nM.
With `O=C(c1ccc2c(-c3ccn4c(=O)[nH]nc4c3)cccc2c1)N1CCCCC1` [compound 109], the IC50 was under 3 nM.
For `CN1Cc2cc(-c3cncc4cc(C(=O)N5CCCCC5)ccc34)ccc2C1=O` [compound 69], the IC50 was under 3 nM.
Next, `Cn1nc2cc(-c3cccc4cc(C(=O)N5CCC(F)(F)CC5)ccc34)ccn2c1=O` [compound 65]: under 3 nM.
The result for `Cn1c(=O)[nH]c(=O)c2ccc(-c3cccc4cc(C(=O)N5CCC(F)(F)CC5)ccc34)cc21` [compound 33] reads under 3 nM.
On to `O=C(c1ccc2c(-c3ccc4c(=O)[nH]ncc4c3)cccc2c1)N1CC=CCC1` [compound 123], for which the half-maximal inhibitory concentration (IC50) was under 3 nM.
`Cn1ccc2c(c1=O)CCN(c1cccc3cc(C(=O)N4CCCCC4)ccc13)C2` [compound 107]: the IC50 is under 3 nM.
As for `CN1Cc2cc(-c3c(F)ccc4cc(C(=O)N5CCC(F)(F)CC5)ccc34)cnc2C1=O` [compound 85], the half-inhibitory concentration (IC50) is 3 to 10 nM.
For `CN1Cc2cc(-c3cccc4cc(C(=O)N5CCC(F)(F)CC5)cnc34)ccc2C1=O` [compound 99], the IC50 is 3 to 10 nM.
